Like-named read-outs stand apart in the source and are kept apart here. Residues, ends and D or L forms follow the SMILES beside them.
What was measured:
E. coli ATCC 25922 = experiment: MIC against E. coli ATCC 25922 in the presence of human serum; assay type: cell-based, Escherichia coli
Description: Escherichia coli ATCC 25922 was purchased from the American Type Culture Collection (ATCC) (Manassas, Virginia, USA) and stored at −80°C as glycerol stock until use. Bacterial cultures were grown overnight in sterile Müller–Hinton broth (MHB) (Difco Inc.) at 37°C under agitation (140 r.p.m.). The next day, the cultures were diluted 1 : 30 in new MHB and incubated as described above for about 2 h (mean logarithmic phase) until they reached an optical density at 600 nm of about 0.3 and then diluted in fresh MHB to the desired concentrations.
The effects of human serum on the antimicrobial activity of B7-005 were assessed by performing a minimum inhibitory concentration (MIC) assay with some modifications. Non-heat-inactivated human serum (Merk Life Science S.r.l., USA) was diluted to 50%, 40%, 30%, 25%, and 20% (v/v) in MHB and the solutions were aliquoted into the wells of a round-bottomed 96-well microtitre plate (Sarstedt, Milan, Italy). Samples with no serum were used for comparison. B7-005 was diluted in MHB added with the proper amount of serum to a concentration of 128 μM, added to the first column of the plate and serially diluted twofold in MHB, added with the proper amount of serum, in the subsequent wells in a final volume of 50 μl. Then 50 μl of a mid-log suspension of 5 × 10^5 CFU ml^−1 E. coli ATCC 25922 cells prepared in MHB added with the proper amount of serum was added to each well of the plate, halving the final concentration of bacteria and peptide. The plate was incubated at 37°C for 18 h. The MIC value was calculated as the lowest concentration of the compound resulting in complete inhibition of visible bacterial growth. MIC values were determined by performing at least three independent experiments (n ≥ 3).

MEC-1 cells = experiment: Cell viability MTT, MEC-1; assay type: cell-based, human; conditions: MEC-1, 24 h, RPMI, n ≥ 9
Description: Chronic lymphocytic leukaemia-derived MEC-1 cells were cultured in suspension using complete RPMI (EuroClone), supplemented with 100 U ml^−1 penicillin (Sigma), 100 μg ml^−1 streptomycin (Sigma), 2 mM L-glutamine and 10% (v/v) foetal bovine serum (FBS, EuroClone). A549 human lung carcinoma epithelial cells and immortalized human keratinocytes (HaCaT) were grown in adhesion in complete high glucose Dulbecco’s MEM (DMEM, EuroClone) supplemented with 100 U ml^−1 penicillin (Sigma), […] streptomycin (Sigma), 2 mM L-glutamine and 10% (v/v) of FBS. […] All cell lines were counted in a Bürker chamber and diluted to the desired working concentrations.
Cell viability was evaluated by tetrazolium salt (MTT, or MTS for HUVECs only) tests. […] The next day, absorbance was measured at 570 nm using a Nanoquant Infinite-M200Pro plate reader (Tecan, Switzerland).
HUVECs, 7500 cells per well, were seeded in HESFM with 10% FBS in a 96-well flat-bottomed microtitre plate (EuroClone SpA, Italy). […] The plate was then incubated for 2 h at 37°C in a humidified 5% CO2 atmosphere, and the absorbance was measured at 490 nm, using a spectrophotometer (PowerWaveX, Bio-Tek Instruments). The cytotoxicity was calculated by comparing the absorbance of peptide-treated samples with that of the untreated control and expressed in percentage of vitality. […]

[1] = tested on: osteosarcoma cell line MG-63; conditions: cited from earlier work
From the text: In this study, the response of cells to B7-005 varied according to the cell type. The tumoral MEC-1 cells were the most sensitive to the cytotoxic effects of the peptide, displaying even higher sensitivity to B7-005 than observed in a previous study. However, we note that in the previous study, the peptides were generated by SPOT synthesis and therefore were of lower-grade purification, which likely explains the differences observed with our study. […] These cells were the only non-immortalized or tumor ...

**Q.** Which results are given for `CC[C@H](C)[C@H](NC(=O)[C@H](CCCNC(=N)N)NC(=O)[C@@H](N)Cc1c[nH]c2ccccc12)C(=O)N[C@@H](CCCNC(=N)N)C(=O)N[C@@H](CCCNC(=N)N)C(=O)N[C@@H](CCCNC(=N)N)C(=O)N[C@@H](Cc1c[nH]c2ccccc12)C(=O)N1CCC[C@H]1C(=O)N[C@@H](CCCNC(=N)N)C(=O)N[C@@H](CC(C)C)C(=O)N1CCC[C@H]1C(=O)N[C@@H](CCCNC(=N)N)C(=O)N1CCC[C@H]1C(=O)N[C@@H](CCCNC(=N)N)C(=O)N[C@@H](Cc1c[nH]c2ccccc12)C(=O)N[C@@H](CCCNC(=N)N)C(=O)O` [B7-005] (H-WRIRRRWPRLPRPRWR-OH)?
**A.** MIC of B7-005 (E. coli ATCC 25922; 0% human serum in MH medium, visual, 18 h at 37°C, mode of n = 3): 1 µM; MIC of B7-005 (E. coli ATCC 25922; 20% (v/v) human serum in MH medium, 18 h at 37°C, mode of n = 3): 2 µM; MIC of B7-005 (E. coli ATCC 25922; 20–30% (v/v) human serum): 2 µM; MIC of B7-005 (E. coli ATCC 25922; 25% (v/v) human serum in MH medium, 18 h at 37°C, mode of n = 3): 2 µM; MIC of B7-005 (E. coli ATCC 25922; 30% (v/v) human serum in MH medium, 18 h at 37°C, mode of n = 3): 2 µM; MIC of B7-005 (E. coli ATCC 25922; 40% (v/v) human serum in MH medium, 18 h at 37°C, mode of n = 3): 4 µM; MIC of B7-005 (E. coli ATCC 25922; 50% (v/v) human serum in MH medium, 18 h at 37°C, mode of n = 3): 8 µM; IC50 (MEC-1 cells): ~48 µM; concentration up to which MG-63 cells remained unaffected ([1]; equivalent of 128 µg ml^−1, ref [35]): ≥ 54 µM; concentration up to which MG-63 cells remained unaffected ([1]; ref [35]): ≥ 128 µg/mL

— PMC11614538, “The proline-rich antimicrobial peptide B7-005: low bacterial resistance, safe for human cells and effective in zebrafish embryo bacteraemia model” (Open Biology, 2024)
